Experimental data published in patent US9360486B2, “Allergen fragments” (Biomay AG, priority 2007, dated 2016).

Tested on: Amb a 1-specific T cell lines (TCL)
Test: T cell epitope mapping of Amb a 1.3: proliferation (3H-thymidine uptake) of TCL stimulated with synthetic peptides
Assay type: cell-based, human
Settings: for No. positive patients SI > 3 / No. positive patients SI > 5 / % (positive patients SI > 3) / % (positive patients SI > 5): TCL from 48 ragweed pollen-allergic patients, peptide 5 μg/ml; for No. positive patients SI > 3 / No. positive patients SI > 5: 3H-thymidine uptake after 48 hrs; for No. positive patients SI > 3 / % (positive patients SI > 3): stimulation index > 3; for No. positive patients SI > 5 / % (positive patients SI > 5): stimulation index > 5; for T cell activating region recognized by % of patients: classes of prevalence referring to SI>5, 48 TCL
Source text: The T cell response to Amb a 1 was characterized in detail using the established in vitro culture system (Jahn-Schmid et al., J. Immunol. 169: 6005-11, 2002; Jahn-Schmid et al., J. Allergy Clin. Immunol., 115: 399-404, 2005). In total, 85 clinically well-defined patients (75 from Vienna/10 from Milano) with typical case history, positive skin prick test and CAP/RAST tests for ragweed extract were included.
Peripheral blood mononuclear cells (PBMC) were isolated from heparinized blood of allergic patients by Ficoll density gradient centrifugation. To generate allergen-specific T cell lines (TCL) and T cell clones (TCC), 1.5×10^6 PBMC were stimulated with optimal doses of ragweed or mugwort extract (4 μg/ml) or rAmb a 1.3 (10 μg/ml) in 24-well flat-bottomed culture plates (Costar, USA). After 5 days human rIL-2 (10 U/ml, Boehringer, Mannheim, Germany) were added and cultures were continued for additional 7 days. Then, T cell blasts were isolated by density centrifugation. The majority of T cell blasts was further expanded with IL-2 and irradiated PBMC. A small number of T cell blasts were used to establish monoclonal T cell cultures by limiting dilution: 0.3 T cells/well were seeded into 96 well round bottom plates (Nunclone) in the presence of 2×10^5 irradiated (60 Gy) PBMC, 0.25% v/v PHA (Gibco, USA) and rIL-2 (4 U/well) in the medium mentioned above. After 14-21 days, growing microcultures were expanded at weekly intervals with irradiated PBMC and rIL-2. The specificity of TCC was assessed in proliferation assays using irradiated allogeneic or HLA-matched PBMC or irradiated EBV-transformed allogeneic B-cells and 5 μg/ml Amb a 1.3. After 48 hours, cellular uptake of tritiated (^3H)-thymidine was performed to measure proliferation in counts per minute (cpm). When the stimulation index (SI; ratio between cpm obtained in cultures containing TCC plus autologous APC plus antigen, and cpm obtained in cultures containing TCC and APC alone) was >10, responses were considered as positive. Allergen-specific TCC were expanded by alternating turns of stimulation with autologous irradiated APC and allergen or with allogeneic feeder cells and rIL-2.
Amb a 1-specific TCL and TCC were used to identify T cell epitopes of Amb a 1.3. T cell cultures were stimulated with a panel of 121 synthetic 12-mer peptides and one 13-mer representing the C-terminal peptide of Amb a 1.3 (Pepset, Biotrend, Germany). Peptides had been synthesized according to the Amb a 1.3 amino acid sequence and overlapped for 9 amino acid residues with the neighbouring peptides (Table 1). Peptides were used at a concentration of 5 μg/ml for stimulation and proliferation of T cell cultures was determined after 48 hrs by ^3H-thymidine-uptake. Because of the frequently observed high background caused by auto-reactivity in TCL, the mean of the cpm observed with the ten least stimulating peptides (none of the peptides was toxic) was used as negative control in calculations of SI. Throughout this manuscript, a peptide comprised one T cell epitope when the stimulation index was at least 3.0.
T cell epitope mapping of Amb a 1.3 was performed evaluating 48 TCL from different patients ([…]), which had been initiated with ragweed extract (containing the natural allergen) or rAmb a 1.3 (Table 2). TCL induced with either ragweed extract or rAmb a 1.3 from the same individual recognized similar T cell epitopes (Table 2; FIG. 7). […] Therefore, their data were combined for further analysis (Table 3). Typical for many inhalant allergens, multiple T cell activating regions were detected in Amb a 1.3. The number of peptides recognized by T cells from a single individual ranged from 2 to maximum 60 peptides with a mean of 17.8 peptides (median=16/for SI>3; resp. 0-36/11.9/12 for SI>5) (see Table 3). In total, 26 relevant (i.e. recognized by ≧10% of patients studied) T cell activating regions comprising 12-18 aa were identified. […]

LATVAFNMFTDN (Amb a 1 fragment) [Peptide 79]
reactivity with T cells isolated from allergic individuals: reactivity with T cells
No. positive patients SI > 3: 5
No. positive patients SI > 5: 2
% (positive patients SI > 3): 10.4%
% (positive patients SI > 5): 4.2%

LCQGNRFLAPDD (Amb a 1 fragment) [Peptide 95]
No. positive patients SI > 3: 0
No. positive patients SI > 5: 0
% (positive patients SI > 3): 0.0%
% (positive patients SI > 5): 0.0%

LDDDVANPKEGT (Amb a 1 fragment) [Peptide 24]
No. positive patients SI > 3: 2
No. positive patients SI > 5: 1
% (positive patients SI > 3): 4.2%
% (positive patients SI > 5): 2.1%

LLENGAIFVTSG (Amb a 1 fragment) [Peptide 108]
reactivity with T cells isolated from allergic individuals: reactivity with T cells
No. positive patients SI > 3: 27
No. positive patients SI > 5: 24
% (positive patients SI > 3): 56.3%
% (positive patients SI > 5): 50.0%

LPGGMIKSNDGP (Amb a 1 fragment) [Peptide 51]
reactivity with T cells isolated from allergic individuals: reactivity with T cells
No. positive patients SI > 3: 6
No. positive patients SI > 5: 3
% (positive patients SI > 3): 12.5%
% (positive patients SI > 5): 6.3%

LRFAAAQNRPLW (Amb a 1 fragment) [Peptide 28]
reactivity with T cells isolated from allergic individuals: reactivity with T cells
No. positive patients SI > 3: 15
No. positive patients SI > 5: 11
% (positive patients SI > 3): 31.3%
% (positive patients SI > 5): 22.9%

LTLMNVKNIIIH (Amb a 1 fragment) [Peptide 44]
reactivity with T cells isolated from allergic individuals: reactivity with T cells
No. positive patients SI > 3: 15
No. positive patients SI > 5: 9
% (positive patients SI > 3): 31.3%
% (positive patients SI > 5): 18.8%
T cell activating region recognized by % of patients: recognized by 18.8%

LTSSAGVLSCRP (Amb a 1 fragment) [Peptide 120]
reactivity with T cells isolated from allergic individuals: reactivity with T cells
No. positive patients SI > 3: 14
No. positive patients SI > 5: 9
% (positive patients SI > 3): 29.2%
% (positive patients SI > 5): 18.8%

LVDVTLGSTHVT (Amb a 1 fragment) [Peptide 66]
No. positive patients SI > 3: 4
No. positive patients SI > 5: 4
% (positive patients SI > 3): 8.3%
% (positive patients SI > 5): 8.3%

MIPAEPGEAAIK (Amb a 1 fragment) [Peptide 116]
No. positive patients SI > 3: 6
No. positive patients SI > 5: 4
% (positive patients SI > 3): 12.5%
% (positive patients SI > 5): 8.3%

MNVKNIIIHNIN (Amb a 1 fragment) [Peptide 45]
No. positive patients SI > 3: 2
No. positive patients SI > 5: 0
% (positive patients SI > 3): 4.2%
% (positive patients SI > 5): 0.0%

MVINLNQELVVN (Amb a 1 fragment) [Peptide 34]
No. positive patients SI > 3: 2
No. positive patients SI > 5: 2
% (positive patients SI > 3): 4.2%
% (positive patients SI > 5): 4.2%

NETRSLQACEAY (Amb a 1 fragment) [Peptide 5]
No. positive patients SI > 3: 4
No. positive patients SI > 5: 0
% (positive patients SI > 3): 8.3%
% (positive patients SI > 5): 0.0%

NGAIFVTSGSDP (Amb a 1 fragment) [Peptide 109]
reactivity with T cells isolated from allergic individuals: reactivity with T cells
No. positive patients SI > 3: 12
No. positive patients SI > 5: 9
% (positive patients SI > 3): 25.0%
% (positive patients SI > 5): 18.8%

NGAIFVTSGSDPVLTPVQ (Amb a 1 fragment) [Peptide 109-111]
reactivity with T cells isolated from allergic individuals: reactivity with T cells
T cell activating region recognized by % of patients: recognized by 22.9%

NGGLTLMNVKNI (Amb a 1 fragment) [Peptide 43]
No. positive patients SI > 3: 4
No. positive patients SI > 5: 1
% (positive patients SI > 3): 8.3%
% (positive patients SI > 5): 2.1%

NIIDKCWRGKAD (Amb a 1 fragment) [Peptide 9]
No. positive patients SI > 3: 3
No. positive patients SI > 5: 2
% (positive patients SI > 3): 6.3%
% (positive patients SI > 5): 4.2%

NINIHDVKVLPG (Amb a 1 fragment) [Peptide 48]
reactivity with T cells isolated from allergic individuals: reactivity with T cells
No. positive patients SI > 3: 10
No. positive patients SI > 5: 9
% (positive patients SI > 3): 20.8%
% (positive patients SI > 5): 18.8%

NLNQELVVNSDK (Amb a 1 fragment) [Peptide 35]
No. positive patients SI > 3: 1
No. positive patients SI > 5: 1
% (positive patients SI > 3): 2.1%
% (positive patients SI > 5): 2.1%

NMFTDNVDQRMP (Amb a 1 fragment) [Peptide 81]
reactivity with T cells isolated from allergic individuals: reactivity with T cells
No. positive patients SI > 3: 7
No. positive patients SI > 5: 6
% (positive patients SI > 3): 14.6%
% (positive patients SI > 5): 12.5%

NPKEGTLRFAAA (Amb a 1 fragment) [Peptide 26]
No. positive patients SI > 3: 0
No. positive patients SI > 5: 0
% (positive patients SI > 3): 0.0%
% (positive patients SI > 5): 0.0%

NRQALADCAQGF (Amb a 1 fragment) [Peptide 14]
No. positive patients SI > 3: 4
No. positive patients SI > 5: 0
% (positive patients SI > 3): 8.3%
% (positive patients SI > 5): 0.0%

NVAGSSQIWIDH (Amb a 1 fragment) [Peptide 59]
reactivity with T cells isolated from allergic individuals: reactivity with T cells
No. positive patients SI > 3: 11
No. positive patients SI > 5: 8
% (positive patients SI > 3): 22.9%
% (positive patients SI > 5): 16.7%

NVAGSSQIWIDHCSLSKS (Amb a 1 fragment) [Peptide 59-61]
reactivity with T cells isolated from allergic individuals: reactivity with T cells
T cell activating region recognized by % of patients: recognized by 58.3%

NYDRWGTYAIGG (Amb a 1 fragment) [Peptide 89]
reactivity with T cells isolated from allergic individuals: reactivity with T cells
No. positive patients SI > 3: 11
No. positive patients SI > 5: 6
% (positive patients SI > 3): 22.9%
% (positive patients SI > 5): 12.5%

PDDQIKKNVLAR (Amb a 1 fragment) [Peptide 98]
reactivity with T cells isolated from allergic individuals: reactivity with T cells
No. positive patients SI > 3: 13
No. positive patients SI > 5: 8
% (positive patients SI > 3): 27.1%
% (positive patients SI > 5): 16.7%

PDDQIKKNVLARTGT (Amb a 1 fragment) [Peptide 98-99]
reactivity with T cells isolated from allergic individuals: reactivity with T cells
T cell activating region recognized by % of patients: recognized by 16.7%

PILRQASDGDTI (Amb a 1 fragment) [Peptide 55]
No. positive patients SI > 3: 3
No. positive patients SI > 5: 1
% (positive patients SI > 3): 6.3%
% (positive patients SI > 5): 2.1%

PLWIIFKNDMVI (Amb a 1 fragment) [Peptide 31]
reactivity with T cells isolated from allergic individuals: reactivity with T cells
No. positive patients SI > 3: 11
No. positive patients SI > 5: 10
% (positive patients SI > 3): 22.9%
% (positive patients SI > 5): 20.8%

PSVNETRSLQAC (Amb a 1 fragment) [Peptide 4]
No. positive patients SI > 3: 4
No. positive patients SI > 5: 1
% (positive patients SI > 3): 8.3%
% (positive patients SI > 5): 2.1%
